The text below walks through data of the NIST ThermoML archive (doi:10.1016/j.fluid.2013.07.054).

The conditions of the data set: 298.15 K; 101 kPa; Liquid; Vibrating tube method.

Molecules are shown by their SMILES. ± gives the expanded uncertainty stated by the source.

As a reminder, the mass density is the mass of a sample divided by its volume. `CCC(C)=O` [butanone]: the mass density amounted to 800.3 ± 0.11 kg/m3.
Under `CC(=O)CC(C)C` [4-methylpentan-2-one] stands 796.23 ± 0.11 kg/m3.
For `CC(=O)C(C)C` [3-methyl-2-butanone], the mass density is on record as 800.63 ± 0.11 kg/m3.
